Results from ChEMBL document CHEMBL1201862, “PubChem BioAssay data set” (2004).
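Cells were grown in 96-well plates and exposed to each compound for 48 hours at five concentrations; endpoints were interpolated linearly between bracketing concentrations, or set to the highest concentration if not reached. Abbreviation: GI50, concentration required for 50% inhibition of growth.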 The source made the active and inactive calls. Cut-off read from the data, not from the text of the source: active = GI50 up to about 1.1 µM and inactive = higher.

Assays:
Assay in all cases: DTP human tumour cell line panel, 48 h
COLO 205 = test system: COLO 205
HL-60 = test system: HL-60
HT-29 = test system: HT-29
IGROV-1 = test system: IGROV-1
KM12 = test system: KM12
OVCAR-3 = test system: OVCAR-3
OVCAR-4 = test system: OVCAR-4
OVCAR-8 = test system: OVCAR-8
SF-539 = test system: SF-539
SK-MEL-28 = test system: SK-MEL-28
SK-MEL-2 = test system: SK-MEL-2
SK-OV-3 = test system: SK-OV-3
SR = test system: SR
UACC-62 = test system: UACC-62
A498 = test system: A498
LOX IMVI = test system: LOX IMVI

Measured: GI50

Cc1ccccc1N(CCC#N)C1=NN(C(=O)CC(=O)Nc2ccc(Cl)cc2)C(c2ccccc2)C1 (stereo not drawn)
inactive: COLO 205 > 100 µM | HL-60 > 100 µM | HT-29 > 100 µM | IGROV-1 > 100 µM | KM12 > 100 µM | OVCAR-3 > 100 µM | OVCAR-4 > 100 µM | OVCAR-8 > 100 µM | SF-539 > 100 µM | SK-MEL-28 > 100 µM | SK-MEL-2 > 100 µM | SK-OV-3 > 100 µM | SR > 100 µM | UACC-62 > 100 µM

Cn1cnc([N+](=O)[O-])c1Sc1nc2cccnc2s1
inactive: A498 40.9 µM | COLO 205 10.3 µM | HT-29 21.3 µM | IGROV-1 17.5 µM | KM12 31.6 µM | LOX IMVI 25.1 µM | OVCAR-3 14.6 µM | OVCAR-4 12.1 µM | OVCAR-8 16.1 µM | SF-539 19.8 µM | SK-MEL-28 16.5 µM | SK-OV-3 51.3 µM | SR 16 µM | UACC-62 17.5 µM

O=C(CNc1nncs1)NO
inactive: A498 > 100 µM | COLO 205 > 100 µM | HL-60 > 100 µM | HT-29 84.3 µM | IGROV-1 > 100 µM | KM12 > 100 µM | OVCAR-3 > 100 µM | OVCAR-4 > 100 µM | OVCAR-8 > 100 µM | SF-539 > 100 µM | SK-MEL-28 > 100 µM | SK-MEL-2 > 100 µM | SK-OV-3 > 100 µM | UACC-62 > 100 µM

O=c1cccccc1NCCCCNc1cccccc1=O
inactive: A498 > 100 µM | COLO 205 > 100 µM | HL-60 49.7 µM | HT-29 > 100 µM | IGROV-1 > 100 µM | KM12 > 100 µM | LOX IMVI > 100 µM | OVCAR-3 > 100 µM | OVCAR-4 50.8 µM | OVCAR-8 > 100 µM | SK-MEL-28 71.1 µM | SK-MEL-2 > 100 µM | SK-OV-3 > 100 µM | UACC-62 72.6 µM

COC[C@@H](/N=C/N1CCc2cc(OC)c(OC)cc2[C@@H]1C)C(C)(C)C
inactive: COLO 205 > 100 µM | HL-60 > 100 µM | HT-29 79.8 µM | IGROV-1 > 100 µM | KM12 > 100 µM | OVCAR-3 > 100 µM | OVCAR-4 > 100 µM | OVCAR-8 > 100 µM | SF-539 > 100 µM | SK-MEL-28 > 100 µM | SK-MEL-2 86.7 µM | SK-OV-3 > 100 µM | SR > 100 µM | UACC-62 > 100 µM

CN[C@H](C)[C@@H](OC)c1ccccc1
inactive: COLO 205 > 100 µM | HL-60 > 100 µM | HT-29 > 100 µM | IGROV-1 > 100 µM | KM12 > 100 µM | LOX IMVI > 100 µM | OVCAR-3 > 100 µM | OVCAR-4 > 100 µM | OVCAR-8 > 100 µM | SK-MEL-28 > 100 µM | SK-MEL-2 > 100 µM | SK-OV-3 > 100 µM | UACC-62 > 100 µM

CC(=O)NC(CCCCNCc1ccccc1)C(=O)NCc1ccccc1 (stereo not drawn)
inactive: A498 > 100 µM | COLO 205 > 100 µM | HT-29 > 100 µM | IGROV-1 > 100 µM | KM12 > 100 µM | LOX IMVI > 100 µM | OVCAR-3 > 100 µM | OVCAR-4 > 100 µM | OVCAR-8 > 100 µM | SF-539 > 100 µM | SK-MEL-28 > 100 µM | SK-MEL-2 > 100 µM | SK-OV-3 > 100 µM | UACC-62 > 100 µM

CCN(CC)CCNC(=O)c1ccccc1Nc1c(Cl)cccc1Cl
inactive: COLO 205 12.9 µM | HL-60 7.41 µM | HT-29 6.15 µM | IGROV-1 19.1 µM | LOX IMVI 11.3 µM | OVCAR-4 14.8 µM | OVCAR-8 16.4 µM | SF-539 17 µM | SK-MEL-28 18.3 µM | SK-OV-3 16.7 µM | SR 13 µM | UACC-62 17.1 µM

COC1=CC(=O)C2C(C1=O)[C@@H]1c3ccccc3OC[C@H]21 (stereo partly drawn)
inactive: A498 > 100 µM | COLO 205 > 100 µM | HL-60 > 100 µM | HT-29 > 100 µM | KM12 > 100 µM | LOX IMVI > 100 µM | OVCAR-3 > 100 µM | OVCAR-4 > 100 µM | OVCAR-8 > 100 µM | SF-539 > 100 µM | SK-MEL-28 > 100 µM | SK-MEL-2 > 100 µM | SK-OV-3 > 100 µM

CC1C(=O)CCC1C(Sc1ccccc1)(Sc1ccccc1)Sc1ccccc1 (stereo not drawn)
inactive: A498 23.2 µM | COLO 205 38.2 µM | HL-60 5.83 µM | HT-29 30.3 µM | IGROV-1 15.1 µM | KM12 24.7 µM | LOX IMVI 21 µM | OVCAR-3 17.6 µM | OVCAR-4 18.8 µM | OVCAR-8 24.3 µM | SF-539 18.7 µM | SK-MEL-28 22.1 µM | SK-MEL-2 34.9 µM | SK-OV-3 80.2 µM | UACC-62 18 µM

CC(=O)OC1(C#N)CC2OC1C1NC21 (stereo not drawn)
inactive: A498 > 100 µM | COLO 205 > 100 µM | HL-60 > 100 µM | IGROV-1 > 100 µM | LOX IMVI > 100 µM | OVCAR-4 > 100 µM | OVCAR-8 > 100 µM | SF-539 > 100 µM | SK-MEL-28 > 100 µM | SK-MEL-2 > 100 µM | SK-OV-3 > 100 µM | UACC-62 > 100 µM

N=C(N)NS(=O)(=O)c1ccc(NCc2c3ccccc3[n+]([O-])c3ccccc23)cc1
inactive: A498 13.6 µM | COLO 205 68.5 µM | HL-60 6.08 µM | HT-29 41.5 µM | IGROV-1 19.8 µM | KM12 30.4 µM | LOX IMVI 11.1 µM | OVCAR-3 46.1 µM | OVCAR-4 23.8 µM | OVCAR-8 28.5 µM | SK-MEL-28 20.4 µM | SK-MEL-2 40.2 µM | SK-OV-3 > 100 µM | UACC-62 22.5 µM

N#CC(C(=N/O)/C(=N/O)C(C#N)c1ccc(Cl)cc1)c1ccc(Cl)cc1 (stereo not drawn)
inactive: A498 > 100 µM | COLO 205 64.6 µM | HT-29 > 100 µM | IGROV-1 > 100 µM | KM12 > 100 µM | LOX IMVI 82.8 µM | OVCAR-3 > 100 µM | OVCAR-4 > 100 µM | OVCAR-8 40 µM | SF-539 > 100 µM | SK-MEL-28 > 100 µM | SK-MEL-2 > 100 µM | SK-OV-3 > 100 µM | UACC-62 91.4 µM

CCc1ccccc1NC(=O)C1=C(C)NC(C)=C(C(=O)Nc2ccccc2CC)C1c1ccc2c(c1)OCO2
inactive: A498 25.1 µM | COLO 205 29 µM | HL-60 16.9 µM | HT-29 31.9 µM | IGROV-1 29.4 µM | KM12 19.2 µM | LOX IMVI 24.4 µM | OVCAR-3 22.5 µM | OVCAR-4 23.2 µM | OVCAR-8 33.7 µM | SF-539 16.8 µM | SK-MEL-28 32.6 µM | SK-MEL-2 19.2 µM | SK-OV-3 30.2 µM

CN(C)c1[se]nc2c1c(=O)n(C)c(=O)n2C
inactive: A498 > 100 µM | COLO 205 > 100 µM | HL-60 > 100 µM | HT-29 > 100 µM | IGROV-1 > 100 µM | KM12 > 100 µM | LOX IMVI > 100 µM | OVCAR-3 > 100 µM | OVCAR-4 > 100 µM | OVCAR-8 > 100 µM | SF-539 > 100 µM | SK-MEL-28 > 100 µM | SK-MEL-2 > 100 µM | SK-OV-3 > 100 µM | UACC-62 > 100 µM

Oc1cccnc1/C=N/OCc1ccccc1
inactive: A498 > 100 µM | COLO 205 > 100 µM | HL-60 > 100 µM | HT-29 > 100 µM | IGROV-1 > 100 µM | KM12 > 100 µM | LOX IMVI > 100 µM | OVCAR-3 > 100 µM | OVCAR-8 > 100 µM | SF-539 > 100 µM | SK-MEL-2 > 100 µM | SK-OV-3 > 100 µM | UACC-62 > 100 µM

O=C(CCc1nnc2s/c(=C\c3ccccc3[N+](=O)[O-])c(=O)n12)Nc1cc(Cl)c(Cl)cc1Cl
inactive: A498 20.4 µM | COLO 205 83.4 µM | HT-29 35.2 µM | IGROV-1 69.5 µM | KM12 19.5 µM | LOX IMVI 20.8 µM | OVCAR-3 18.2 µM | OVCAR-4 14.7 µM | OVCAR-8 25.9 µM | SF-539 21.1 µM | SK-MEL-28 92.9 µM | SK-MEL-2 92.7 µM | SK-OV-3 56.6 µM | UACC-62 40.4 µM

Cc1ccc(S(=O)(=O)NC2CCCCO2)cc1 (stereo not drawn)
inactive: A498 > 100 µM | COLO 205 > 100 µM | HT-29 > 100 µM | IGROV-1 > 100 µM | KM12 > 100 µM | LOX IMVI > 100 µM | OVCAR-3 > 100 µM | OVCAR-4 > 100 µM | OVCAR-8 > 100 µM | SF-539 > 100 µM | SK-MEL-28 > 100 µM | SK-OV-3 > 100 µM | UACC-62 > 100 µM

Nc1ccccc1S(=O)(=O)N(CC(=O)O)c1ccccc1
inactive: A498 > 100 µM | COLO 205 > 100 µM | HL-60 > 100 µM | HT-29 > 100 µM | IGROV-1 > 100 µM | LOX IMVI > 100 µM | OVCAR-4 > 100 µM | OVCAR-8 > 100 µM | SF-539 > 100 µM | SK-MEL-28 > 100 µM | SK-MEL-2 > 100 µM | SK-OV-3 > 100 µM | UACC-62 > 100 µM

Cc1ccc(C)c(NC(=O)c2cccc([N+](=O)[O-])c2O)c1
inactive: A498 24 µM | COLO 205 17.3 µM | HL-60 > 100 µM | HT-29 26.1 µM | IGROV-1 22.2 µM | KM12 23.7 µM | LOX IMVI 16.7 µM | OVCAR-3 27.1 µM | OVCAR-4 13.2 µM | OVCAR-8 32.1 µM | SF-539 32.3 µM | SK-MEL-28 27.1 µM | SK-OV-3 29.9 µM | UACC-62 5.74 µM
